Measurements from the supplement of paper PMC10307832.

Assays:
Experiment in all cases: relative viability (nuclei count vs DMSO), 5 days (fraction); higher = more cells survive
XMD13-2 + Pemetrexed = compound: C1CC1C(=O)NC2=NNC3=C2C=CC(=C3)C4=CC(=CC=C4)C(=O)NC5CC5 [XMD13-2] + Nc1nc2[nH]cc(CCc3ccc(C(=O)N[C@@H](CCC(=O)O)C(=O)O)cc3)c2c(=O)[nH]1 [Pemetrexed] (partner 0.2 µM)
Outline: (§1)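 The day after seeding in 1536-well plates, lung cancer cell lines were treated by pin tool with a single drug, or with a fixed anchor-drug dose together with five library-drug doses (not always all listed) in √10 steps. After 5 days, a combined fix-and-stain solution (final 0.05% Triton X-100, 1% formaldehyde, 1 ug/ml Hoechst) was added. Nuclei counted on 4× images gave relative viability as treated counts over vehicle counts, reported as the median of duplicate plates.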

XMD13-2 + Olaparib = compound: C1CC1C(=O)NC2=NNC3=C2C=CC(=C3)C4=CC(=CC=C4)C(=O)NC5CC5 [XMD13-2] + O=C(c1cc(Cc2n[nH]c(=O)c3ccccc23)ccc1F)N1CCN(C(=O)C2CC2)CC1 [Olaparib] (partner 8 µM)
Outline: as §1

ALW-II-49-7 + Trametinib = compound: Cc1ccc(C(=O)Nc2cccc(C(F)(F)F)c2)cc1Nc1cncc(C(N)=O)c1 [ALW-II-49-7] + CC(=O)Nc1cccc(-n2c(=O)n(C3CC3)c(=O)c3c(Nc4ccc(I)cc4F)n(C)c(=O)c(C)c32)c1 [Trametinib] (partner 0.02 µM)
Outline: as §1

ALW-II-49-7 + Vorinostat = compound: Cc1ccc(C(=O)Nc2cccc(C(F)(F)F)c2)cc1Nc1cncc(C(N)=O)c1 [ALW-II-49-7] + O=C(CCCCCCC(=O)Nc1ccccc1)NO [Vorinostat] (partner 1 µM)
Outline: as §1

Row | Cell Line | relative viability (XMD13-2 + Pemetrexed; first compound 0.05 µM) | relative viability (XMD13-2 + Pemetrexed; first compound 0.1581 µM) | relative viability (XMD13-2 + Pemetrexed; first compound 0.5 µM) | relative viability (XMD13-2 + Pemetrexed; first compound 1.581 µM) | relative viability (XMD13-2 + Pemetrexed; first compound 5 µM) | relative viability (XMD13-2 + Olaparib; first compound 0.05 µM) | relative viability (XMD13-2 + Olaparib; first compound 0.1581 µM) | relative viability (XMD13-2 + Olaparib; first compound 0.5 µM) | relative viability (XMD13-2 + Olaparib; first compound 1.581 µM) | relative viability (XMD13-2 + Olaparib; first compound 5 µM) | relative viability (ALW-II-49-7 + Trametinib; first compound 0.08 µM) | relative viability (ALW-II-49-7 + Trametinib; first compound 0.253 µM) | relative viability (ALW-II-49-7 + Trametinib; first compound 0.8 µM) | relative viability (ALW-II-49-7 + Trametinib; first compound 2.53 µM) | relative viability (ALW-II-49-7 + Trametinib; first compound 8 µM) | relative viability (ALW-II-49-7 + Vorinostat; first compound 0.08 µM) | relative viability (ALW-II-49-7 + Vorinostat; first compound 0.253 µM) | relative viability (ALW-II-49-7 + Vorinostat; first compound 0.8 µM) | relative viability (ALW-II-49-7 + Vorinostat; first compound 2.53 µM) | relative viability (ALW-II-49-7 + Vorinostat; first compound 8 µM)
1 | NCI-H460 | 0.0636 | 0.0622 | 0.0651 | 0.0612 | 0.0633 | 0.546 | 0.493 | 0.412 | 0.526 | 0.566 | 0.133 | 0.17 | 0.142 | 0.118 | 0.101 | 0.763 | 0.857 | 0.69 | 0.497 | 0.498
2 | NCI-H522 | 1.24 | 1.05 | 1.1 | 1.08 | 0.886 | 0.632 | 0.7 | 0.618 | 0.473 | 0.65 | 0.883 | 0.665 | 0.867 | 0.82 | 0.853 | 0.824 | 1.04 | 0.824 | 0.834 | 0.94
3 | LCLC-103H | 0.421 | 0.473 | 0.471 | 0.483 | 0.461 | 0.764 | 0.797 | 0.776 | 0.846 | 0.805 | 0.667 | 0.748 | 0.735 | 0.712 | 0.677 | 0.79 | 0.763 | 0.658 | 0.71 | 0.618
4 | HCC-827 | 0.264 | 0.27 | 0.211 | 0.272 | 0.261 | 0.722 | 0.661 | 0.575 | 0.609 | 0.421 | 0.534 | 0.526 | 0.525 | 0.475 | 0.462 | 0.9 | 0.803 | 0.787 | 0.813 | 0.883
5 | NCI-H322M | 0.659 | 0.614 | 0.579 | – | 0.608 | 0.807 | 0.848 | 0.553 | – | 1.04 | 0.484 | 0.533 | 0.506 | 0.472 | 0.515 | 0.789 | 0.93 | 0.861 | 0.93 | 0.773
6 | NCI-H1666 | 0.863 | 0.919 | 0.875 | 0.884 | 0.946 | 0.752 | 0.736 | 0.793 | 0.742 | 0.777 | 0.864 | 0.927 | 0.865 | 0.948 | 0.803 | 0.903 | 1.07 | 1.11 | 0.971 | 1
7 | NCI-H1793 | 1.26 | 0.83 | 0.94 | 0.859 | 0.97 | 1.23 | 0.812 | 0.95 | 0.927 | 0.983 | 0.365 | 0.404 | 0.486 | 0.409 | 0.443 | 0.816 | 0.811 | 0.616 | 0.798 | 0.431
8 | NCI-H1437 | 0.336 | 0.326 | 0.343 | 0.323 | 0.329 | 0.61 | 0.617 | 0.64 | 0.64 | 0.634 | 0.486 | 0.573 | 0.332 | 0.512 | 0.509 | 0.831 | 0.926 | 0.822 | 0.756 | 0.699
